Results on 17 compounds are retold here after patent publication US9096608B2, “Pharmaceutically active pyrazolo-triazine derivatives” (LEAD DISCOVERY CENTER GMBH, priority 2012, dated 2015).

Common to all, as to assay type: biochemical
The target in one test is T1, CDK9/Cyclin T1 (Homo sapiens, UniProt P50750).
T1 construct: purchased Invitrogen
The test can be described thus: CDK9 Enzymatic Activity Assay (Lance Kinase Activity Assay, FRET). As to conditions: for CDK9: Selectivity of CDK7 inhibition over CDK9 inhibition [fold]: Table 5B, symbols per IC50 ranges of b615. As to the method:
(§1) This protocol describes how the Lance Kinase Activity Assay was performed to determine IC50 values of compounds of general formula (I) against CDK/Cyclin complexes. The principle behind this enzymatic assay is based upon the phosphorylation of the Ulight-Peptide Substrat. It is detected by using a specific EU-labeled anti-phospho peptide antibody.
(§2) Binding of an inhibitor to the kinase prevents phosphorylation of the ULlight-MBP Substrat, resulting in a loss of FRET.
CDK9 Enzymatic Activity Assay
(§3) The compounds of general formula (I) exemplary summarized in Table 1 were diluted from a 10 mM DMSO stock solution 1:10 in a total volume of 15 μl DMSO. This compound predilution was then serial diluted 1:3 over 8 steps in DMSO and briefly spun down. Each compound solution was now diluted 1:20 in Enzymatic Buffer (HEPES: 50 mM, pH: 7.5; MgCl2: 10 mM; EGTA: 1 mM; DTT: 2 mM; Tween-20: 0.01%), mixed thoroughly and spun down.
(§4) For positive controls, 2 μl of DMSO working solution were mixed with 6 μl CDK9/cyclin T1/substrate working solution and 2 μl ATP working solution. Positive and negative controls were calculated from at least 8 different wells. The 384 well plates were mixed in a Teleshaker plate mixer (Beckman Coulter, Brea, Calif., USA) at 2000 rpm for 40 sec, and incubated for 1 h at room temperature before addition of 10 μl LANCE Detection Buffer (1×; EDTA: […]; Eu-Anti-P-MBP: 4 nM) per well. Plates were mixed in a Teleshaker plate mixer (Beckman Coulter, Brea, Calif., USA) at 2000 rpm for sec, followed by incubation with Detection Buffer for 1 h, and reading. […] IC50 values were determined from the sigmoidal dose response curves with the software Quattro Workflow (Quattro GmbH, Munich, Germany).

For another test, the target named is T2, CDK2/CycA (Homo sapiens, UniProt P24941).
T2 construct: purchased Proqinase
Briefly: CDK2 Enzymatic Activity Assay (Lance Kinase Activity Assay, FRET). To be noted: Table 5B; symbols per IC50 ranges of b615. As to the method:
as §1, §2
CDK2 Enzymatic Activity Assay
as §3
as §4, with “CDK2/CycA/substrate” for “CDK9/cyclin T1/substrate”, “(EDTA:” for “(1×; EDTA:”

The target in a further test is T3, CDK7/CycH/Mat1 (Homo sapiens, UniProt P50613).
T3 construct: purchased Carna
T3 sequence (P50613 whole entry): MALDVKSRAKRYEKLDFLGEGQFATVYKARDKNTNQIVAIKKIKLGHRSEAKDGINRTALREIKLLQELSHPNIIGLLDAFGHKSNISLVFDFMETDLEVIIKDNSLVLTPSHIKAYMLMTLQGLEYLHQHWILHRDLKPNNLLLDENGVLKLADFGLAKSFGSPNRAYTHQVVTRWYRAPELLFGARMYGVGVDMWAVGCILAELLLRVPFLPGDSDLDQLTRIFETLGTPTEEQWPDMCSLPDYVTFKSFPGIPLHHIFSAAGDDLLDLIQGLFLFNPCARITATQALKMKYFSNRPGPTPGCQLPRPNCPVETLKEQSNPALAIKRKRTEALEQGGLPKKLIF
T3 sequence (P51946 whole entry partner): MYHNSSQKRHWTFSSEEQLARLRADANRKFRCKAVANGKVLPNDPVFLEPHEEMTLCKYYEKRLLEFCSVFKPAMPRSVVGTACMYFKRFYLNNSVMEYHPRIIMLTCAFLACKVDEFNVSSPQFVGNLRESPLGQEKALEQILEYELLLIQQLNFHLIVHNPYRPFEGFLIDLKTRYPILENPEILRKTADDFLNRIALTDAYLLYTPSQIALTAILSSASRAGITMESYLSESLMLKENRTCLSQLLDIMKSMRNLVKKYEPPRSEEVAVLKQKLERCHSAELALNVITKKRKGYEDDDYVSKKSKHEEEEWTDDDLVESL
T3 sequence (P51948 whole entry partner): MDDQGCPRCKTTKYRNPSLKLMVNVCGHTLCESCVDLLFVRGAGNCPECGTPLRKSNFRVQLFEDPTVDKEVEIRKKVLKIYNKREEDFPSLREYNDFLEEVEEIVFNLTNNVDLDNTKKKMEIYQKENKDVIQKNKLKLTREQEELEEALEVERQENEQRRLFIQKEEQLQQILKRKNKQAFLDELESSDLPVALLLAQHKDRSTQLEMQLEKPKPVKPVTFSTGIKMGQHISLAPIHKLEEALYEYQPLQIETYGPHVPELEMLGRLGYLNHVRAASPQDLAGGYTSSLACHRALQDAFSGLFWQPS
The test can be described thus: CDK7 Enzymatic Activity Assay (Lance Kinase Activity Assay, FRET). Here is the method:
as §1, §2
CDK7 Enzymatic Activity Assay
as §3
as §4, with “6 μl CDK7/CycH/Mat1/substrate working solution” for “6 μl CDK9/cyclin T1/substrate working solution”, “rpm for 40 sec, followed” for “rpm for sec, followed”

The mark [1] stands for this setting: Table 5A, 25 μM ATP final, read-out: CDK7: IC50 [mM] for CDK7 inhibition (the above defined ranges apply).

SMILES strings stand for the structures. Read-outs that look alike come from different tables or passages of the source.

T1 sequence (P50750 whole entry): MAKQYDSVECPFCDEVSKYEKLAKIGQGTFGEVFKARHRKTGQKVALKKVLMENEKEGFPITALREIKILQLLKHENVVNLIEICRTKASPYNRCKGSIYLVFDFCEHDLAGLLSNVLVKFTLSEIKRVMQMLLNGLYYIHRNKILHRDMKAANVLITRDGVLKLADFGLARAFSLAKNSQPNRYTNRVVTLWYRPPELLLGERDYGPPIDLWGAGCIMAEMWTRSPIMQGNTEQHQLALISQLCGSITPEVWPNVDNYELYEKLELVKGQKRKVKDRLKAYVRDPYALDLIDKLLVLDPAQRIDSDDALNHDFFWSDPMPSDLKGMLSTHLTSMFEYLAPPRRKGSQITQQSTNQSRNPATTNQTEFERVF
T1 sequence (O60563 whole entry partner): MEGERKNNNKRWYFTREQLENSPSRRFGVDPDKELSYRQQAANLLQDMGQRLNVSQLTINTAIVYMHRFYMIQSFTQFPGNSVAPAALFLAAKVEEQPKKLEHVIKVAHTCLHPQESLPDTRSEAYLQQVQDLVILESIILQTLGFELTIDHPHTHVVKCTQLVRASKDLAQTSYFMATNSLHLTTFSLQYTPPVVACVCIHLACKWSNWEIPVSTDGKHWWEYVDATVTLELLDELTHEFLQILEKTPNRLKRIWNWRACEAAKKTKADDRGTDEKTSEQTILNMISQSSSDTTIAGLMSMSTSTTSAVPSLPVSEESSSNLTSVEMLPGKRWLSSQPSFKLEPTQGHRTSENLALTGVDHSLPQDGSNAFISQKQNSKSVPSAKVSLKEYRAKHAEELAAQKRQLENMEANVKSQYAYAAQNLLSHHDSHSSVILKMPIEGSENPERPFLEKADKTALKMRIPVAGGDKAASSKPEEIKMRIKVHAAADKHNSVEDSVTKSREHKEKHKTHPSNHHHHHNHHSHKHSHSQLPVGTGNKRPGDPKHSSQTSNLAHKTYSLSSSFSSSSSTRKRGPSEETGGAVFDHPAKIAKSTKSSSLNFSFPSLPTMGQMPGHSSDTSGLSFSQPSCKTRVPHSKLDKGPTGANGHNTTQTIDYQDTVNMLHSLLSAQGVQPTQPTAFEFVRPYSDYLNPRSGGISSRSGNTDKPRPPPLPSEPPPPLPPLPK

Turning to `CC(C)c1cnn2c(N[C@@H](C)c3ccc(Cl)cc3)nc(O[C@@H]3CCCNC3)nc12` [(VII-al), N-((S)-1-(4-chlorophenyl)ethyl)-8-isopropyl-2-((R)-piperidin-3-yloxy)pyrazolo[1,5-a][1,3,5]triazin-4-amine], the “CDK9: Selectivity of CDK7 inhibition over CDK9 inhibition [fold]” value at CDK9/Cyclin T1 is “+++ (IC50>2500 nM)”. Further, the “CDK2 IC50 range class” value at CDK2/CycA is reported as “+++ (IC50>2500 nM)”. Besides, the 50% inhibitory concentration (IC50) (as a rule, the concentration that inhibits the measured activity by half) at CDK7/CycH/Mat1 (setting [1]) was over 0.1 µM.

As for `COc1cccc([C@H](C)Nc2nc(NCCN)nc3c(C(C)C)cnn23)c1` [(VIII-V), (S)-N2-(2-aminoethyl)-8-isopropyl-N4-(1-(3-methoxyphenyl)ethyl)pyrazolo[1,5-a][1,3,5]triazine-2,4-diamine], on CDK9/Cyclin T1, the “CDK9: Selectivity of CDK7 inhibition over CDK9 inhibition [fold]” value is on record as “+++ (IC50>2500 nM)”. In addition, the “CDK2 IC50 range class” value on CDK2/CycA is “+++ (IC50>2500 nM)”. The IC50 at CDK7/CycH/Mat1 (setting [1]) is over 0.1 µM.

On to `COc1cc(F)ccc1[C@H](C)Nc1nc(O[C@@H]2CCCNC2)nc2c(C(C)C)cnn12` [(VII-az), N-((S)-1-(4-fluoro-2-methoxyphenyl)ethyl)-8-isopropyl-2-((R)-piperidin-3-yloxy)pyrazolo[1,5-a][1,3,5]triazin-4-amine], for which, at CDK9/Cyclin T1, the “CDK9: Selectivity of CDK7 inhibition over CDK9 inhibition [fold]” value is listed as “+++ (IC50>2500 nM)”. The “CDK2 IC50 range class” value on CDK2/CycA was “+++ (IC50>2500 nM)”. Moreover, the 50% inhibitory concentration (IC50) on CDK7/CycH/Mat1 (setting [1]) lay in the range of 0.03 to 0.1 µM.

On to `COc1cccc([C@H](C)Nc2nc(S(=O)(=O)C3CCNCC3)nc3c(C(C)C)cnn23)c1` [(X-f), (S)-8-isopropyl-N-(1-(3-methoxyphenyl)ethyl)-2-(piperidin-4-ylsulfonyl)pyrazolo[1,5-a][1,3,5]triazin-4-amine], for which the “CDK9: Selectivity of CDK7 inhibition over CDK9 inhibition [fold]” value on CDK9/Cyclin T1 is reported as “+++ (IC50>2500 nM)”. Further, the “CDK2 IC50 range class” value at CDK2/CycA is given as “+++ (IC50>2500 nM)”. Besides, the IC50 on CDK7/CycH/Mat1 (setting [1]) lay within 0.01 to 0.03 µM.

`CC(C)c1cnn2c(N[C@@H](C)c3ccccc3)nc(NC3CCNCC3)nc12` [(VIII-d), (S)-8-isopropyl-N4-(1-phenylethyl)-N2-(piperidin-4-yl)pyrazolo[1,5-a][1,3,5]triazine-2,4-diamine]: the “CDK2 IC50 range class” value at CDK2/CycA is “+++ (IC50>2500 nM)”. Further, the concentration for half-maximal inhibition (IC50) at CDK7/CycH/Mat1 (setting [1]) fell in the range of 0.01 to 0.03 µM.

As for `COc1cccc([C@H](C)Nc2nc(NCCCN)nc3c(C(C)C)cnn23)c1` [(VIII-t), (S)-N2-(3-aminopropyl)-8-isopropyl-N4-(1-(3-methoxyphenyl)ethyl)pyrazolo[1,5-a][1,3,5]triazine-2,4-diamine], on CDK9/Cyclin T1, the “CDK9: Selectivity of CDK7 inhibition over CDK9 inhibition [fold]” value is “+++ (IC50>2500 nM)”. Moreover, on CDK2/CycA, the “CDK2 IC50 range class” value is recorded as “+++ (IC50>2500 nM)”. Moreover, the IC50 on CDK7/CycH/Mat1 (setting [1]) lay within 0.03 to 0.1 µM.

In the case of `COc1cccc([C@H](C)Nc2nc(NCCOCCN)nc3c(C(C)C)cnn23)c1` [(VIII-u), (S)-N2-(2-(2-aminoethoxy)ethyl)-8-isopropyl-N4-(1-(3-methoxyphenyl)ethyl)pyrazolo[1,5-a][1,3,5]triazine-2,4-diamine], the “CDK9: Selectivity of CDK7 inhibition over CDK9 inhibition [fold]” value on CDK9/Cyclin T1 is recorded as “+++ (IC50>2500 nM)”. Also, the “CDK2 IC50 range class” value on CDK2/CycA is on record as “+++ (IC50>2500 nM)”. For the same compound, the IC50 on CDK7/CycH/Mat1 (setting [1]) is 0.03 to 0.1 µM.

For the compound `CC(C)c1cnn2c(NC(C)c3ccccc3N3CCCCC3)nc(O[C@@H]3CCCNC3)nc12` (stereo partly drawn) [(VII-aq), 8-isopropyl-N-(1-(2-(piperidin-1-yl)phenyl)ethyl)-2-((R)-piperidin-3-yloxy)pyrazolo[1,5-a][1,3,5]triazin-4-amine], the “CDK9: Selectivity of CDK7 inhibition over CDK9 inhibition [fold]” value at CDK9/Cyclin T1 is “+++ (IC50>2500 nM)”. In addition, on CDK2/CycA, the “CDK2 IC50 range class” value was “+++ (IC50>2500 nM)”. For the same compound, the IC50 at CDK7/CycH/Mat1 (setting [1]) is over 0.1 µM.

Consider `CC(C)c1cnn2c(N[C@@H](C)c3cccc4ccccc34)nc(O[C@@H]3CCCNC3)nc12` [(VII-am), 8-isopropyl-N-((S)-1-(naphthalen-1-yl)ethyl)-2-((R)-piperidin-3-yloxy)pyrazolo[1,5-a][1,3,5]triazin-4-amine], for which the “CDK9: Selectivity of CDK7 inhibition over CDK9 inhibition [fold]” value at CDK9/Cyclin T1 is recorded as “+++ (IC50>2500 nM)”. The “CDK2 IC50 range class” value at CDK2/CycA is “+++ (IC50>2500 nM)”. Moreover, the 50% inhibitory concentration (IC50) on CDK7/CycH/Mat1 (setting [1]) lay within 0.01 to 0.03 µM.

Take `COc1cccc([C@H](C)Nc2nc(N(C)CCCN3CCCCC3)nc3c(C(C)C)cnn23)c1` [(VIII-X), (S)-8-isopropyl-N4-(1-(3-methoxyphenyl)ethyl)-N2-methyl-N2-(3-(piperidin-1-yl)propyl)pyrazolo(1,5-a][1,3,5]triazine-2,4-diamine]: on CDK9/Cyclin T1, the “CDK9: Selectivity of CDK7 inhibition over CDK9 inhibition [fold]” value is given as “+++ (IC50>2500 nM)”. Moreover, the “CDK2 IC50 range class” value on CDK2/CycA is reported as “+++ (IC50>2500 nM)”. In addition, on CDK7/CycH/Mat1 (setting [1]), the half-inhibitory concentration (IC50) was over 0.1 µM.

On to `COc1cccc([C@H](C)Nc2nc(OC3CNC3)nc3c(C(C)C)cnn23)c1` [(VII-bv), (S)-2-(azetidin-S-yloxy)-8-isopropyl-N-(1-(3-methoxyphenyl)ethyl)pyrazolo[1,5-a][1,3,5]triazin-4-amine], for which the “CDK9: Selectivity of CDK7 inhibition over CDK9 inhibition [fold]” value on CDK9/Cyclin T1 is recorded as “+++ (IC50>2500 nM)”. Besides, the “CDK2 IC50 range class” value on CDK2/CycA is listed as “+++ (IC50>2500 nM)”. In addition, the IC50 at CDK7/CycH/Mat1 (setting [1]) is under 0.01 µM.

Turning to `COc1cccc([C@H](C)Nc2nc(N3CCC(N)C3)nc3c(C(C)C)cnn23)c1` (stereo partly drawn) [(VIII-q), 2-(3-aminopyrrolidin-1-yl)-8-isopropyl-N-((S)-1-(3-methoxyphenyl)ethyl)pyrazolo[1,5-a][1,3,5]triazin-4-amine], at CDK9/Cyclin T1, the “CDK9: Selectivity of CDK7 inhibition over CDK9 inhibition [fold]” value was “+++ (IC50>2500 nM)”. The “CDK2 IC50 range class” value at CDK2/CycA is listed as “+++ (IC50>2500 nM)”. At CDK7/CycH/Mat1 (setting [1]), the IC50 was over 0.1 µM.

On to `CC(C)c1cnn2c(N[C@H](c3ccccc3)C3CC3)nc(O[C@@H]3CCCNC3)nc12` [(VII-s), N-((S)-cyclopropyl(phenyl)methyl)-8-isopropyl-2-((R)-piperidin-3-yloxy)pyrazolo[1,5-a][1,3,5]triazin-4-amine], for which the “CDK2 IC50 range class” value at CDK2/CycA was “+++ (IC50>2500 nM)”. In addition, at CDK7/CycH/Mat1 (setting [1]), the half-maximal inhibitory concentration (IC50) lay within 0.01 to 0.03 µM.

With `CC(C)c1cnn2c(N[C@@H](C)c3ccccc3)nc(OC3CCNC3)nc12` (stereo partly drawn) [(VII-e), 8-isopropyl-N-((S)-1-phenylethyl)-2-(pyrrolidin-3-yloxy)pyrazolo[1,5-a][1,3,5]triazin-4-amine], the “CDK9: Selectivity of CDK7 inhibition over CDK9 inhibition [fold]” value at CDK9/Cyclin T1 is reported as “+++ (IC50>2500 nM)”. Moreover, the IC50 at CDK7/CycH/Mat1 (setting [1]) was under 0.01 µM.

As to `COc1ccccc1[C@H](C)Nc1nc(N[C@@H]2CCCNC2)nc2c(C(C)C)cnn12` [(VIII-g), 8-isopropyl-N4-((S)-1-(2-methoxyphenyl)ethyl)-N2-((R)-piperidin-3-yl)pyrazolo[1,5-a][1,3,5]triazine-2,4-diamine], the “CDK9: Selectivity of CDK7 inhibition over CDK9 inhibition [fold]” value at CDK9/Cyclin T1 is on record as “+++ (IC50>2500 nM)”. In addition, the IC50 on CDK7/CycH/Mat1 (setting [1]) is under 0.01 µM.

As to `CC(C)c1cnn2c(NC(C)c3ccccc3-n3cccn3)nc(O[C@@H]3CCCNC3)nc12` (stereo partly drawn) [(VII-V), N-(1-(2-(1H-pyrazol-1-yl)phenyl)ethyl)-8-isopropyl-2-((R)-piperidin-3-yloxy)pyrazolo[1,5-a][1,3,5]triazin-4-amine], the “CDK9: Selectivity of CDK7 inhibition over CDK9 inhibition [fold]” value at CDK9/Cyclin T1 is listed as “+++ (IC50>2500 nM)”. In addition, the IC50 on CDK7/CycH/Mat1 (setting [1]) was under 0.01 µM.

For the compound `COc1cccc([C@H](C)Nc2nc(OC3CCN(C)CC3)nc3c(C(C)C)cnn23)c1` [(VII-ae), (S)-8-isopropyl-N-(1-(3-methoxyphenyl)ethyl)-2-((1-methylpiperidin-4-yl)oxy)pyrazolo[1,5-a][1,3,5]triazin-4-amine], the “CDK9: Selectivity of CDK7 inhibition over CDK9 inhibition [fold]” value on CDK9/Cyclin T1 was “+++ (IC50>2500 nM)”. Also, the “Selectivity CDK7 over CDK9 [fold]” value at CDK9/Cyclin T1 (Table 6, CDK9 activity as multiple of CDK7 activity) is 1704 fold. Moreover, the half-inhibitory concentration (IC50) is under 0.01 µM on CDK7/CycH/Mat1 (setting [1]) and under 0.01 µM on CDK7/CycH/Mat1 (Table 6, read-out: IC50 [nM] CDK7).
